Drawing on US11034685B2, “Aminopyridine derivatives as TAM family kinase inhibitors” (SignalChem Lifesciences Corporation, priority 2013, dated 2021), this text covers IC50 for 13 compounds.

Assay type in all cases: biochemical
Assay [1] addresses T1, Recombinant human Tyro3 (455-end) (Homo sapiens, UniProt Q06418).
T1 construct: GST (N); made in house; host or cells: Sf9 insect cells (baculovirus)
T1 sequence (Q06418 455-890 limits assumed): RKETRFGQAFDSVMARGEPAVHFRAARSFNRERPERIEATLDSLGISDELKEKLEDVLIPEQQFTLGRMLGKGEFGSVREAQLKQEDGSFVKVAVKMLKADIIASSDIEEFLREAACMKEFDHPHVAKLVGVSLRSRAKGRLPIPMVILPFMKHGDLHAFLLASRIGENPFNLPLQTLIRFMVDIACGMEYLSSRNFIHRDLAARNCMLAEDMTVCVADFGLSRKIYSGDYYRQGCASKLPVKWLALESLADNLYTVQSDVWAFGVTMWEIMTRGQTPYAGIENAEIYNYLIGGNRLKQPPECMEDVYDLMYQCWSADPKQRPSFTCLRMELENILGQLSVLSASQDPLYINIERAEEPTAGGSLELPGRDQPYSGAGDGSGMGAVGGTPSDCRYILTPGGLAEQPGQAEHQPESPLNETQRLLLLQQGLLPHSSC
Briefly: Kinase enzymatic activity assay ([33P]-ATP phosphate transfer), Tyro3. The note with it: inhibitory activity on Tyro3; class symbols. Put shortly: (§1)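 Kinases were N-terminal GST-tagged constructs expressed in Sf9 cells, with poly(Glu:Tyr 4:1) as substrate. Reactions ran in MOPS buffer pH 7.2 with MgCl2 and [33P]-ATP (250 μM cocktail stock) for 30 min at room temperature. Filter-bound radioactivity gave % inhibition, and IC50 was taken from serial dilutions.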

In assay [2] the target is T2, human Axl (473-end) (Homo sapiens, UniProt P30530).
T2 construct: GST (N); made in house; host or cells: Sf9 insect cells (baculovirus)
T2 sequence (P30530 473-894 limits assumed): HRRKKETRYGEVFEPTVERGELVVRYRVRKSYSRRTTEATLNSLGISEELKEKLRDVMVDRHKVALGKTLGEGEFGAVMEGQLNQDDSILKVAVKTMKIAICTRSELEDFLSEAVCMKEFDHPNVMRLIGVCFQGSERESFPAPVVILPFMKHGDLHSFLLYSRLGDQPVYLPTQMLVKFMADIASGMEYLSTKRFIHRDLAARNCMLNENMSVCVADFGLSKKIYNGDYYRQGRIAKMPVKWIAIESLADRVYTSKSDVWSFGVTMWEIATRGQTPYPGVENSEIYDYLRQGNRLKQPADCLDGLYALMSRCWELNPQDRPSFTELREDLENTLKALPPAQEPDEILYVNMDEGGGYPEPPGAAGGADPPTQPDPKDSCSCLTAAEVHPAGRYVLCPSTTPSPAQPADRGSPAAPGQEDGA
Briefly: Kinase enzymatic activity assay ([33P]-ATP phosphate transfer), Axl. The note with it: inhibitory activity on Axl; class symbols. The method in brief: as §1

Assay [3] addresses T3, human Mer (578-872) (Homo sapiens, UniProt Q12866).
T3 construct: GST (N); made in house; host or cells: Sf9 insect cells (baculovirus)
T3 sequence (Q12866 578-872): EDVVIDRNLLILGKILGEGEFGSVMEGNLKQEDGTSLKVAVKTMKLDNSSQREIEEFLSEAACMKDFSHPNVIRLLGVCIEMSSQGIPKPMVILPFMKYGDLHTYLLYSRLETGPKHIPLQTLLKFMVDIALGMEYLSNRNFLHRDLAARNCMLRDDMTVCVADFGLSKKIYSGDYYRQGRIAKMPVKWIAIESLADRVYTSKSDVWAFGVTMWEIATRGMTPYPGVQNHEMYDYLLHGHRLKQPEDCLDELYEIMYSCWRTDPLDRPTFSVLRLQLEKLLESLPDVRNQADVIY
Kind of assay: Kinase enzymatic activity assay ([33P]-ATP phosphate transfer), Mer. The note with it: inhibitory activity on Mer; class symbols. Put shortly: as §1

With `Nc1ncc(-c2cnn(C3CCN(C(=O)C4CC4)CC3)c2)cc1-c1ncc(-c2ccc(Cl)cc2)o1` [(4-(4-(6-amino-5-(5-(4-chlorophenyl)oxazol-2-yl)pyridin-3-yl)-1H-pyrazol-1-yl)piperidin-1-yl)(cyclopropyl)methanone], the IC50 in assay [1] is below 0.5 µM; in assay [2], below 0.5 µM; in assay [3], above 10 µM.
Consider `Nc1ncc(-c2cnn(C3CCN(C(=O)c4ccccc4)CC3)c2)cc1-c1ncc(-c2ccc(Cl)cc2)o1` [(4-(4-(6-amino-5-(5-(4-chlorophenyl)oxazol-2-yl)pyridin-3-yl)-1H-pyrazol-1-yl)piperidin-1-yl)(phenyl)methanone], for which the IC50 is below 0.5 µM in assay [1], below 0.5 µM in assay [2] and 1 to 10 µM in assay [3].
In the case of `CC(C)(C)OC(=O)N1CCC(n2cc(-c3cnc(N)c(-c4nnc(-c5nc(C(F)(F)F)cs5)o4)c3)cn2)CC1` [tert-butyl 4-(4-(6-amino-5-(5-(4-(trifluoromethyl)-thiazol-2-yl)-1,3,4-oxadiazol-2-yl)pyridin-3-yl)-1H-pyrazol-1-yl)piperidine-1-carboxylate], the IC50 in assay [1] was 1 to 10 µM; in assay [2], below 0.5 µM; in assay [3], above 10 µM.
Taken in the same sequence, the figures for `CC(C)(C)OC(=O)N1CCC(n2cc(-c3cnc(N)c(-c4ncc(-c5ccc(Cl)cc5)o4)c3)cn2)CC1` [tert-butyl 4-(4-(6-amino-5-(5-(4-chlorophenyl)oxazol-2-yl)pyridin-3-yl)-1H-pyrazol-1-yl)piperidine-1-carboxylate] were 1 to 10 µM, 0.5 to 1 µM and 1 to 10 µM.
`CC(C)(C)OC(=O)N1CCC(n2cc(-c3cnc(N)c(-c4nnc(-c5ccc(F)cc5)o4)c3)cn2)CC1` [tert-butyl 4-(4-(6-amino-5-(5-(4-fluorophenyl)-1,3,4-oxadiazol-2-yl)pyridin-3-yl)-1H-pyrazol-1-yl)piperidine-1-carboxylate]: the half-maximal inhibitory concentration (IC50) in assay [1], in assay [2] and in assay [3] was 1 to 10 µM in each case.
For the compound `CC(C)(C)OC(=O)N1CCC(n2cc(-c3cnc(N)c(-c4nnc(CC5CC5)o4)c3)cn2)CC1` [tert-butyl 4-(4-(6-amino-5-(5-(cyclopropylmethyl)-1,3,4-oxadiazol-2-yl)pyridin-3-yl)-1H-pyrazol-1-yl)piperidine-1-carboxylate], the figures for the IC50 in assay [1], in assay [2] and in assay [3] were 1 to 10 µM, below 0.5 µM and 0.5 to 1 µM, respectively.
In the same order, the values of `CC(C)(C)OC(=O)N1CCC(n2cc(-c3cnc(N)c(-c4nnc(-c5cnccn5)o4)c3)cn2)CC1` [tert-butyl 4-(4-(6-amino-5-(5-(pyrazin-2-yl)-1,3,4-oxadiazol-2-yl)pyridin-3-yl)-1H-pyrazol-1-yl)piperidine-1-carboxylate] are 1 to 10 µM, below 0.5 µM and 1 to 10 µM.
For `CC(C)(C)OC(=O)N1CCC(n2cc(-c3cnc(N)c(-c4nnc(-c5ccccn5)o4)c3)cn2)CC1` [tert-butyl 4-(4-(6-amino-5-(5-(pyridin-2-yl)-1,3,4-oxadiazol-2-yl)pyridin-3-yl)-1H-pyrazol-1-yl)piperidine-1-carboxylate], the IC50 in assay [1] is 1 to 10 µM; in assay [2] it was below 0.5 µM; in assay [3] it was 1 to 10 µM.
For the compound `CC(C)(C)OC(=O)N1CCC(n2cc(-c3cnc(N)c(-c4nnc(-c5cccnc5)o4)c3)cn2)CC1` [tert-butyl 4-(4-(6-amino-5-(5-(pyridin-3-yl)-1,3,4-oxadiazol-2-yl)pyridin-3-yl)-1H-pyrazol-1-yl)piperidine-1-carboxylate], the IC50 lay in the range of 1 to 10 µM in assay [1], 0.5 to 1 µM in assay [2] and 1 to 10 µM in assay [3].
As to `CC(C)(C)OC(=O)N1CCC(n2cc(-c3cnc(N)c(-c4nnc(-c5nccs5)o4)c3)cn2)CC1` [tert-butyl 4-(4-(6-amino-5-(5-(thiazol-2-yl)-1,3,4-oxadiazol-2-yl)pyridin-3-yl)-1H-pyrazol-1-yl)piperidine-1-carboxylate], the IC50 fell in the range of 1 to 10 µM in assay [1], 0.5 to 1 µM in assay [2] and 1 to 10 µM in assay [3].
With `CC(C)(C)OC(=O)N1CCC(n2cc(-c3cnc(N)c(-c4nnc(Cc5ccccc5)o4)c3)cn2)CC1` [tert-butyl 4-(4-(6-amino-5-(5-benzyl-1,3,4-oxadiazol-2-yl)pyridin-3-yl)-1H-pyrazol-1-yl)piperidine-1-carboxylate], the IC50 is 1 to 10 µM in assay [1], below 0.5 µM in assay [2] and 1 to 10 µM in assay [3].
Consider `CC(C)(C)OC(=O)N1CCC(n2cc(-c3cnc(N)c(-c4nnc(-c5ccccc5)o4)c3)cn2)CC1` [tert-butyl 4-(4-(6-amino-5-(5-phenyl-1,3,4-oxadiazol-2-yl)pyridin-3-yl)-1H-pyrazol-1-yl)piperidine-1-carboxylate], for which the IC50 in assay [1], in assay [2] and in assay [3] was 1 to 10 µM in each case.
Turning to `CC(C)(C)OC(=O)N1CCC(n2cc(-c3cnc(N)c(-c4ncc(-c5ccccc5)o4)c3)cn2)CC1` [tert-butyl 4-(4-(6-amino-5-(5-phenyloxazol-2-yl)pyridin-3-yl)-1H-pyrazol-1-yl)piperidine-1-carboxylate], the 50% inhibitory concentration (IC50) was 0.5 to 1 µM in assay [1], below 0.5 µM in assay [2] and 1 to 10 µM in assay [3].
